The results in this text go back to patent US20250179022A1, “COMPOUND USED AS TYK2 INHIBITOR, PREPARATION METHOD THEREFOR, AND PHARMACEUTICAL USE THEREOF” (SHANGHAI ZHIGEN PHARMACEUTICAL & TECHNOLOGY CO. LTD., priority 2022, published 2025).

One data set deals with T1, TYK2 (Homo sapiens, UniProt P29597, E957D).
T1 construct: host or cells: Ba/F3 (murine B lymphocytes)
Nature of the data set: TYK2 kinase activity inhibition assay (Ba/F3-FL-TYK2-E957D cell proliferation, CellTiter-Glo). The data set is classed as cell-based. The note with it: 72 h. As for the experimental part:
The TYK2 kinase gene was introduced into wild-type murine-derived B lymphocytes (BaF3) to construct the Ba/F3-FL-TYK2-E957D stable cell line.
In this experiment, the inhibitory effect of the compounds on the proliferation of Ba/F3-FL-TYK2-E957D cells were tested, apoptosis was detected, and the IC50 value was calculated. The inhibitory activity of the compounds against TYK2 kinase was evaluated based on the IC50 value.
The tested compounds, powder and stored at room temperature, were prepared into 10 mM stock solution with DMSO and stored at −20° C. away from light for use.
Compounds were prepared into dilute solutions which was 1000 times of the final concentration. The compound was prepared into 20-times of the final concentration by diluting the compound with culture medium. 2 ul of 1000-times compound was added to per well to 98 ul of culture medium.
Cells (provided by Sundia Pharmaceutical Technology (Shanghai) Co., Ltd.) were resuspended and counted using an automated cell counter. The cell suspension was diluted to the desired density based on BaF3 seeding density of 2000 cells per well. Each well was plated with 95 ul of cells and incubated at 37° C. for stable equilibrium. 5 ul of 20-times compound was added to each well, with the wells to which the same volume of DMSO was added as a control.
The cell plate was equilibrated to room temperature. 40 ul CellTiter-Glo® Reagent was added to each well, shaken for 2 minutes and allowed to stand for 10 minutes. Detected with SpectraMax Paradigm.
• (1) IC50 was calculated using GraphPad Prism 5. • (2) % Inh=(Max signal−Compound signal)/(Max signal−Min signal)×100. • (3) Max signal was the positive control well with only the same volume of DMSO as the compound. • (4) Min signal was the negative control well with only the culture medium.

Data set [1] concerns IFN-α-induced STAT phosphorylation. Nature of the data set: IFN-α-induced STAT phosphorylation in human whole blood. The format is cell-based. The conditions noted are these: human whole blood, 20 ng/ml IFN-α, pSTAT5 in CD3-positive cells; read-out: IC50, IFN-α inflammatory pathway (IFN-α-induced STAT phosphorylation). From the text: The cytokine receptor attached to TYK2 mediates the signaling of type 1 interferon (IFN-α), which has been identified as the most important inflammatory factor of the autoimmune system. Human whole blood is induced with IFN-α, and TYK2 from lymphocytes in whole blood triggered STAT phosphorylation, which mediated subsequent inflammatory signaling. Therefore, TYK2 inhibitors have an inhibitory effect on IFN-α signaling, and the stronger the TYK2 inhibitory activity, the lower the level of STAT phosphorylation, and the stronger the corresponding anti-inflammatory effect.
In this experiment, the ability of the compounds to inhibit IFN-α-induced STAT phosphorylation in human whole blood were tested, and the IC50 values were calculated. The anti-inflammatory activity of the compounds was evaluated at the tissue level and evaluation of the inhibitory activity of compounds on the IFN-α inflammatory pathway based on the IC50 value.
The tested compound, powder and stored at room temperature, prepared into 10 mM stock solution with DMSO and stored at −80° C. in the refrigerator.
1× Fix/Lysis solution preparation: 5× Fix/Lysis and ddH2O were diluted according to 1:4 and preheated in 37° C. incubator, waiting for use.
Flow cytometric staining buffer preparation: 1 g of bovine serum albumin (BSA) and 1 mL of EDTA (0.5 M) solution were added to 500 mL of phosphate buffer solution (PBS) and stored at 4° C. in the refrigerator.
Compound dilution solution: 0.5 g of bovine serum albumin (BSA) was added to 500 mL of phosphate buffer solution (PBS), and stored at 4° C. in the refrigerator.
50 μg/mL IFN-alpha was diluted to 400 ng/mL with Compound Diluent and set aside.
67.5 μL of human whole blood was added to a 96-well plate using a 300 μL electric volley gun. 3.5 μL of prepared test compound was added, mixed well and placed in the cell culture incubator. After 60 min incubation, 400 ng/mL IFN-α (Biolegend 592702, final concentration 20 ng/ml) was added. The obtained was mixed well and placed in the cell culture incubator to continue incubation for 15 min.
After cytokine stimulation, 5 ul of PE-CD3 (BD 555333) antibody was added to each well, mixed and incubation was continued at 4° C. in the refrigerator. At the end, whole blood was transferred to a 96-well deep-well plate using a volley gun, pre-warmed 1× Fix/Lysis solution was added, and cells were lysed and fixed for 12 minutes at 37° C. in an incubator. After being washed, 400 μL of Perm III solution was added, vortexed and incubated on ice for 30 minutes. Cells were then stained by 100 μL of APC-pSTAT5 (1:100) antibody for 50 min at room temperature. This was followed by flow-through instrumentation. The expression of pSTAT5 was quantified by median fluorescence intensity after gating the CD3-positive signaling cluster.

Data set [2] in a line: In vivo pharmacokinetic experiments in Beagle dogs (oral). The note with it: for Cmax / MRT / half-life: male, dog, plasma. As for the experimental part:
Experimental Methods: Healthy male Beagle dogs were randomly grouped into 3 […] in each group, and were given the test compounds orally. Before the gavage experiment, the dogs were fasted for 12 h, drank water freely, and were uniformly fed for 4 h after the administration of the drug. 0.083, 0.25, 0.5, 1.0, 2.0, 4.0, 6.0, 8.0, 10 and 24 h after administration; about 600 μL of blood was collected from the forelimb or hindlimb at the above set time points and placed in EDTA-K2 tubes, and the whole blood was collected and stored temporarily in an ice-water bath, and then centrifuged at least 3500 rpm for 10 min within 30 min, and the plasma was separated and frozen in a −70° C. refrigerator for testing.

Data set [3] can be described thus: In vivo pharmacokinetic experiment in rats (oral). The arrangement: species or system SD rats. The conditions noted are these: 20 mg/kg. As for the experimental part: Experimental method: Healthy male SD rats were randomly grouped into 3 rats in each group and given the test compound orally. The rats were fasted for 12 h before the gavage experiment, and drank water freely, and were fed uniformly for 4 h after the administration of the compounds. Before (0 h) and 0.25, 0.5, 1.0, 2.0, 4.0, 6.0, 8.0 and 24 h after the administration of the test compounds, 0.2 mL of blood was collected from the jugular vein at the above set time points and placed in EDTA-K2 tubes, and the whole blood was collected and stored temporarily in an ice-water bath, and then centrifuged at 11,000 rpm for 5 min within 30 min, the plasma was separated, and frozen at −70° C. in a refrigerator for testing.

As a reminder, the IC50 is the concentration needed to halve the response being measured. In general, Cmax refers to the peak of the concentration-time curve. One may read the MRT as a mean duration of stay, worked out from the concentration-time curve. In general, half-life refers to the time needed for the level to fall by half in the phase considered. Read a high half-life as slow decline.

T1 sequence (P29597 whole entry E957D): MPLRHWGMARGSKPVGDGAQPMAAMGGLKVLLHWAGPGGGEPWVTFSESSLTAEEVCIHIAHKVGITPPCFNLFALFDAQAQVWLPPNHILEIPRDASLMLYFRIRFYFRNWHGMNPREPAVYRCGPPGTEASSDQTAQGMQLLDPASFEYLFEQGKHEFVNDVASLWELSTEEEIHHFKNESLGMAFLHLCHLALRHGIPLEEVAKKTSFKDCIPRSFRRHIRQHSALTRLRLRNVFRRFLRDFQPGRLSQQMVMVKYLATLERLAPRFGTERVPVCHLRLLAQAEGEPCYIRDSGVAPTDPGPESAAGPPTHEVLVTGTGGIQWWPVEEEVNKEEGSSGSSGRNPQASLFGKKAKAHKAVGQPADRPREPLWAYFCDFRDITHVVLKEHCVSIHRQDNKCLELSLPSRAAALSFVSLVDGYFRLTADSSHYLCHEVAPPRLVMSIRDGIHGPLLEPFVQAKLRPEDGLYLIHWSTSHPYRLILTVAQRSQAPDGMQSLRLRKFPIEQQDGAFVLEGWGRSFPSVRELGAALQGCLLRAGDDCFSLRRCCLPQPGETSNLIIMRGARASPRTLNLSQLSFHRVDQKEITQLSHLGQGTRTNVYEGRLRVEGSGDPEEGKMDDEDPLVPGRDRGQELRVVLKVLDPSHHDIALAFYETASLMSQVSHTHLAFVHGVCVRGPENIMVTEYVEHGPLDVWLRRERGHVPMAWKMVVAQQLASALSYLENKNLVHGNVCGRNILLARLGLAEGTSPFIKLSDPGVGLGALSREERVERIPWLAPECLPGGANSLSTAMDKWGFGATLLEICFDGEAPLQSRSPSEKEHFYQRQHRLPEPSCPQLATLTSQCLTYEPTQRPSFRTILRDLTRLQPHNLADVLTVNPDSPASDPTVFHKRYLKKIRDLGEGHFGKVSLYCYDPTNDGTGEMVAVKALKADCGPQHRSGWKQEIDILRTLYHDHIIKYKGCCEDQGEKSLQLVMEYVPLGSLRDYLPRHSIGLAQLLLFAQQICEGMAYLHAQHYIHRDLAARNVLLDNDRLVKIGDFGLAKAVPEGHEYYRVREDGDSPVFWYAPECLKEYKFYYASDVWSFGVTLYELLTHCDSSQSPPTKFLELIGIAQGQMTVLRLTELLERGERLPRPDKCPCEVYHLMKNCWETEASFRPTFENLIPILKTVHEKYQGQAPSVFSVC

In turn, `[2H]C([2H])([2H])NC(=O)c1nnc(NC(=O)C2CC2)cc1Nc1ncccc1S(C)(=O)=NC` (stereo not shown) [Example 2, 6-(cyclopropylcarboxamido)-4-((3-(N,S-dimethylsulfoximino)pyridin-2-yl)amino)-N-(methyl-d3)pyridazine-3-carboxamide] registered an IC50 against TYK2 of 2.4 nM.
As for `CN=S(C)(=O)c1ccc(N)nc1Nc1cc(NC(=O)C2CC2)nnc1C(=O)NC` (stereo not shown) [Example 7, 4-((6-amino-3-(N,S-dimethylsulfoximino)pyridin-2-yl)amino)-6-(cyclopropylcarboxamido)-N-methylpyridazine-3-carboxamide], in data set [1], the 50% inhibitory concentration (IC50) worked out at 22.1 nM.
Regarding `CN=S(C)(=O)c1cc(Br)cnc1Nc1cc(NC(=O)C2CC2)nnc1C(=O)NC` (stereo not shown) [Example 13, 4-((5-bromo-3-(N,S-dimethylsulfoximino)pyridin-2-yl)amino)-6-(cyclopropylcarboxamido)-N-methylpyridazine-3-carboxamide], on TYK2, the IC50 was found to be 3.9 nM.
Still for that read-out and setting: with `CN=S(C)(=O)c1cc(OC)cnc1Nc1cc(NC(=O)C2CC2)nnc1C(=O)NC` (stereo not shown) [Example 14, 6-(cyclopropylamido)-4-((3-(N,S-dimethylsulfoximino)-5-methoxypyridin-2-yl)amino)-N-methylpyridazine-3-carboxamide] the figure was 3.7 nM; with `CN=S(C)(=O)c1cc(OCCCOC)cnc1Nc1cc(NC(=O)C2CC2)nnc1C(=O)NC` (stereo not shown) [Example 16, 6-(cyclopropylcarboxamido)-4-((3-(N,S-dimethylsulfoximino)-5-(3-methoxypropoxy)pyridin-2-yl)amino)-N-methylpyridazine-3-carboxamide], 3.5 nM.
Regarding `[2H]C([2H])([2H])NC(=O)c1nnc(NC(=O)C2CC2)cc1Nc1nc(N)c(Br)cc1[S@@](C)(=O)=NC` [Example 30, (R)-4-((6-amino-5-bromo-3-(N,S-dimethylsulfoximino)pyridin-2-yl)amino)-6-(cyclopropylformyl)-N-(methyl-d3)pyridazine-3-carboxamide], in data set [2] (2 mg/kg), the AUC was 8454 ngh/mL, the Cmax is 625 ng/mL, the MRT was found to be 11.8 h and the half-life was 8.61 h.
In the case of `CN=S(C)(=O)c1cc2cc[nH]c2nc1Nc1cc(NC(=O)C2CC2)nnc1C(=O)NC` (stereo not shown) [Example 31, 6-(cyclopropylcarboxamido)-4-((5-(N,S-dimethylsulfoximino)-1H-pyrrolo[2,3-b]pyridin-6-yl)amino)-N-methylpyridazine-3-carboxamide], at TYK2, the IC50 amounted to 1.1 nM.
Still for that read-out and setting: with `CN=S(C)(=O)c1cc2c(Cl)c(Cl)[nH]c2nc1Nc1cc(NC(=O)C2CC2)nnc1C(=O)NC` (stereo not shown) [Example 33, 6-(cyclopropylamido)-4-((2,3-dichloro-5-(N,S-dimethylsulfoximino)-1H-pyrrolo[2,3-b]pyridin-6-yl)amino)-N-methylpyridazine-3-carboxamide] the figure was 1.2 nM.
In data set [3], `[2H]C([2H])([2H])N=[S@](C)(=O)c1cc(Cl)c(N)nc1Nc1cc(NC(=O)C2CC2)nnc1C(=O)NC([2H])([2H])[2H]` [Example 40, (R)-4-((6-amino-5-chloro-3-(S-methyl-N-(methyl-d3)sulfonylimino)pyridin-2-yl)amino)-6-(cyclopropylcarboxamide)-N-(methyl-d3)pyridazine-3-carboxamide] displayed an AUC of 22029 ngh/mL and an F of 109%. In data set [3] (male, SD, rat, plasma), this compound gave a Cmax of 2950 ng/mL, an MRT of 4.7 h and a half-life of 2.65 h. This compound also came in with an IC50 against TYK2 of 0.4 nM. In data set [2] (10 mg/kg), this compound registered an AUC of 79882 ngh/mL, an F of 136.6%, a Cmax of 4850 ng/mL and an MRT of 12.7 h. Also, the half-life in data set [2] (10 mg/kg) is 9.28 h.
In turn, `[2H]C([2H])([2H])N=[S@](C)(=O)c1cc(Br)c(N)nc1Nc1cc(NC(=O)C2CC2)nnc1C(=O)NC([2H])([2H])[2H]` [Example 41, (R)-4-((6-amino-5-bromo-3-(S-methyl-N-(methyl-d3)sulfonylimino)pyridin-2-yl)amino)-6-(cyclopropylcarboxamide)-N-(methyl-d3)pyridazine-3-carboxamide] displayed an IC50 against TYK2 of 0.4 nM.
The compound `[2H]C([2H])([2H])N=[S@](C)(=O)c1cc(I)c(N)nc1Nc1cc(NC(=O)C2CC2)nnc1C(=O)NC([2H])([2H])[2H]` [Example 42, (R)-4-((6-amino-5-iodo-3-(S-methyl-N-(methyl-d3)sulfonylimino)pyridin-2-yl)amino)-6-(cyclopropylcarboxamide)-N-(methyl-d3)pyridazine-3-carboxamide] had an IC50 against TYK2 of 0.4 nM.
`[2H]C([2H])([2H])N=[S@](C)(=O)c1cc(C2CC2)c(N)nc1Nc1cc(NC(=O)C2CC2)nnc1C(=O)NC([2H])([2H])[2H]` [Example 43, (R)-4-((6-amino-5-cyclopropyl-3-(S-methyl-N-(methyl-d3)sulfonylimino)pyridin-2-yl)amino)-6-(cyclopropylcarboxamide)-N-(methyl-d3)pyridazine-3-carboxamide] returned an IC50 at TYK2 of 1.1 nM.
`[2H]C([2H])([2H])N=[S@](C)(=O)c1cc(C=C)c(N)nc1Nc1cc(NC(=O)C2CC2)nnc1C(=O)NC([2H])([2H])[2H]` [Example 44, (R)-4-((6-amino-3-(S-methyl-N-(methyl-d3)sulfonylimino)-5-vinylpyridin-2-yl)amino)-6-(cyclopropylcarboxamide)-N-(methyl-d3)pyridazine-3-carboxamide] gave an IC50 on TYK2 of 0.3 nM.
In turn, `[2H]C([2H])([2H])N=[S@](C)(=O)c1cc(C#CC)c(N)nc1Nc1cc(NC(=O)C2CC2)nnc1C(=O)NC([2H])([2H])[2H]` [Example 45, (R)-4-((6-amino-3-(S-methyl-N-(methyl-d3)sulfonylimino)-5-(propynyl-1-yl)pyridin-2-yl)amino)-6-(cyclopropylcarboxamide)-N-(methyl-d3)pyridazine-3-carboxamide] came in with an IC50 on TYK2 of 0.1 nM.
As for `[2H]C([2H])([2H])N=[S@](C)(=O)c1cc(C#CC2CC2)c(N)nc1Nc1cc(NC(=O)C2CC2)nnc1C(=O)NC([2H])([2H])[2H]` [Example 46], at TYK2, inhibition was half-maximal at 0.1 nM (IC50).
